Laboratory results as given in ChEMBL document CHEMBL3885861, “Open TG-GATES”.

Species on record: Rattus norvegicus
Test: Open TG-GATES - Regimen: Single
Assay type: toxicity, organism-based, Sprague-Dawley
Parameters: regimen Single, gender Male, age 6 weeks
Conditions: in vivo, po, 1000 mg/kg, route gavage, dose level High; for APTT / Bas / Eos / Fbg / Hb / Ht / Lym / MCH / MCHC / MCV / Mono / Neu / PT / Plat / RBC / Ret / WBC: tissue Blood; for KIDNEY_L / KIDNEY_R / KIDNEY_TOTAL: tissue Kidney; for LIVER: tissue Liver; for A/G / ALP / ALT / AST / BUN / CRE / Ca / Cl / DBIL / GLC / IP / K / LDH / Na / PL / RALB / TBIL / TC / TG / TP / gamma-GTP: tissue Plasma

Work on `CCc1cc(C(N)=S)ccn1` [ETHIONAMIDE] yielded a TERMINAL_BW (3 h) of 227.9 g, an APTT (3 h) of 17.7 s and a Bas (3 h) of 0%. The Eos (3 h) was 1%, the Fbg (3 h) was 212.6 mg/dL and the Hb (3 h) was 13.7 g/dL. It also gave a Ht (3 h) of 40.6%, a Lym (3 h) of 70.8% and an MCH (3 h) of 21.4 pg. It also gave an MCHC (3 h) of 33.8%, an MCV (3 h) of 63.5 fL and a Mono (3 h) of 8.4%. The Neu (3 h) was 19.8%, the PT (3 h) was 12.4 s and the Plat (3 h) was 112.8 x10_4/uL. It also gave an RBC (3 h) of 640 x10_4/ul, a Ret (3 h) of 7.9% and a WBC (3 h) of 62.9 x10_2/uL. It also gave a KIDNEY_L (3 h) of 1 g, a KIDNEY_R (3 h) of 1 g and a KIDNEY_TOTAL (3 h) of 2 g. It also gave an LIVER (3 h) of 11.1 g, an A/G (3 h) of 1.9 and an ALP (3 h) of 715 IU/L. The ALT (3 h) was 33.6 IU/L, the AST (3 h) was 69 IU/L and the BUN (3 h) was 13.4 mg/dL. The CRE (3 h) was 0.5 mg/dL, the Ca (3 h) was 11 mg/dL and the Cl (3 h) was 100 meq/L. For the same molecule, the DBIL (3 h) was 0.014 mg/dL, the GLC (3 h) was 202.8 mg/dL and the IP (3 h) was 9.1 mg/dL. The K (3 h) was 4 meq/L, the LDH (3 h) was 106.4 IU/L and the Na (3 h) was 139.2 meq/L. The PL (3 h) was 130.4 mg/dL, the RALB (3 h) was 3.7 g/dL and the TBIL (3 h) was 0.4 mg/dL. It also gave a TC (3 h) of 78.6 mg/dL, a TG (3 h) of 46 mg/dL and a TP (3 h) of 5.7 g/dL. For the same molecule, the gamma-GTP (3 h) was 1.2 IU/L, the TERMINAL_BW (6 h) was 227.1 g and the APTT (6 h) was 18.3 s. The Bas (6 h) was 0%, the Eos (6 h) was 0.8% and the Fbg (6 h) was 209.2 mg/dL. For the same molecule, the Hb (6 h) was 14.4 g/dL, the Ht (6 h) was 43.1% and the Lym (6 h) was 75.6%. For the same molecule, the MCH (6 h) was 21.9 pg, the MCHC (6 h) was 33.5% and the MCV (6 h) was 65.3 fL. It also gave a Mono (6 h) of 7.6%, a Neu (6 h) of 16% and a PT (6 h) of 13.8 s. For the same molecule, the Plat (6 h) was 118.7 x10_4/uL, the RBC (6 h) was 659.2 x10_4/ul and the Ret (6 h) was 7.9%. The WBC (6 h) was 98.1 x10_2/uL, the KIDNEY_L (6 h) was 1 g and the KIDNEY_R (6 h) was 1 g. It also gave a KIDNEY_TOTAL (6 h) of 2 g, an LIVER (6 h) of 10.4 g and an A/G (6 h) of 1.8. The ALP (6 h) was 679 IU/L, the ALT (6 h) was 33.8 IU/L and the AST (6 h) was 74.8 IU/L. The BUN (6 h) was 16 mg/dL, the CRE (6 h) was 0.5 mg/dL and the Ca (6 h) was 10.9 mg/dL. The Cl (6 h) was 102.8 meq/L, the DBIL (6 h) was 0.004 mg/dL and the GLC (6 h) was 192.4 mg/dL. It also gave an IP (6 h) of 9.4 mg/dL, a K (6 h) of 4 meq/L and an LDH (6 h) of 119.2 IU/L. It also gave a Na (6 h) of 139.2 meq/L, a PL (6 h) of 111.8 mg/dL and an RALB (6 h) of 3.6 g/dL. For the same molecule, the TBIL (6 h) was 0.5 mg/dL, the TC (6 h) was 62.4 mg/dL and the TG (6 h) was 17.8 mg/dL. For the same molecule, the TP (6 h) was 5.6 g/dL, the gamma-GTP (6 h) was 1.2 IU/L and the TERMINAL_BW (9 h) was 224.3 g. For the same molecule, the APTT (9 h) was 18.3 s, the Bas (9 h) was 0% and the Eos (9 h) was 1.2%. The Fbg (9 h) was 209 mg/dL, the Hb (9 h) was 14 g/dL and the Ht (9 h) was 41.3%. It also gave a Lym (9 h) of 73.8%, an MCH (9 h) of 21.2 pg and an MCHC (9 h) of 33.8%. For the same molecule, the MCV (9 h) was 62.8 fL, the Mono (9 h) was 8.4% and the Neu (9 h) was 16.8%. The PT (9 h) was 14.6 s, the Plat (9 h) was 121.3 x10_4/uL and the RBC (9 h) was 657 x10_4/ul. For the same molecule, the Ret (9 h) was 7.5%, the WBC (9 h) was 77.3 x10_2/uL and the KIDNEY_L (9 h) was 1 g. It also gave a KIDNEY_R (9 h) of 1 g, a KIDNEY_TOTAL (9 h) of 2 g and an LIVER (9 h) of 9.7 g. It also gave an A/G (9 h) of 1.9, an ALP (9 h) of 641 IU/L and an ALT (9 h) of 36.2 IU/L. The AST (9 h) was 75.2 IU/L, the BUN (9 h) was 16.4 mg/dL and the CRE (9 h) was 0.5 mg/dL. For the same molecule, the Ca (9 h) was 10.6 mg/dL, the Cl (9 h) was 104.6 meq/L and the DBIL (9 h) was 0.018 mg/dL. For the same molecule, the GLC (9 h) was 202 mg/dL, the IP (9 h) was 9.6 mg/dL and the K (9 h) was 4.3 meq/L. For the same molecule, the LDH (9 h) was 99 IU/L, the Na (9 h) was 140.6 meq/L and the PL (9 h) was 107.8 mg/dL. The RALB (9 h) was 3.5 g/dL, the TBIL (9 h) was 0.4 mg/dL and the TC (9 h) was 59.4 mg/dL. The TG (9 h) was 14.8 mg/dL, the TP (9 h) was 5.3 g/dL and the gamma-GTP (9 h) was 1.2 IU/L. For the same molecule, the TERMINAL_BW (24 h) was 219.4 g, the APTT (24 h) was 18.9 s and the Bas (24 h) was 0%. It also gave an Eos (24 h) of 1.6%, a Fbg (24 h) of 186.4 mg/dL and a Hb (24 h) of 15.3 g/dL. It also gave a Ht (24 h) of 45.1%, a Lym (24 h) of 62.2% and an MCH (24 h) of 22.2 pg. For the same molecule, the MCHC (24 h) was 34%, the MCV (24 h) was 65.3 fL and the Mono (24 h) was 7.8%. It also gave a Neu (24 h) of 28.2%, a PT (24 h) of 15.4 s and a Plat (24 h) of 118 x10_4/uL. For the same molecule, the RBC (24 h) was 691.2 x10_4/ul, the Ret (24 h) was 8.3% and the WBC (24 h) was 63.3 x10_2/uL. For the same molecule, the KIDNEY_L (24 h) was 1 g, the KIDNEY_R (24 h) was 1 g and the KIDNEY_TOTAL (24 h) was 2 g. The LIVER (24 h) was 10.1 g, the A/G (24 h) was 2 and the ALP (24 h) was 839.2 IU/L. For the same molecule, the ALT (24 h) was 36.6 IU/L, the AST (24 h) was 68.6 IU/L and the BUN (24 h) was 13 mg/dL. For the same molecule, the CRE (24 h) was 0.6 mg/dL, the Ca (24 h) was 10.3 mg/dL and the Cl (24 h) was 102.2 meq/L. The DBIL (24 h) was 0.054 mg/dL, the GLC (24 h) was 228.8 mg/dL and the IP (24 h) was 8.3 mg/dL. For the same molecule, the K (24 h) was 3.9 meq/L, the LDH (24 h) was 87.6 IU/L and the Na (24 h) was 140.8 meq/L. It also gave a PL (24 h) of 86.6 mg/dL, an RALB (24 h) of 3.6 g/dL and a TBIL (24 h) of 0.4 mg/dL. The TC (24 h) was 41.4 mg/dL, the TG (24 h) was 41.8 mg/dL and the TP (24 h) was 5.3 g/dL. It also gave a gamma-GTP (24 h) of 0.4 IU/L.
